Reference: ChEMBL document CHEMBL3885881, “DrugMatrix”

Species on record: Rattus norvegicus
Assay: DrugMatrix - Regimen: Daily Repeat
Assay type: toxicity, organism-based, Sprague-Dawley
Design: regimen Daily Repeat, gender Male, age 6-8 weeks
Conditions: in vivo, po, route oral GAVAGE, vehicle 100 % WATER; for ABSOLUTE BASOPHIL / ABSOLUTE EOSINOPHIL / ABSOLUTE LYMPHOCYTE / ABSOLUTE MONOCYTE / ABSOLUTE SEGMENTED NEUTROPHIL / BASOPHIL / EOSINOPHIL / ERYTHROCYTE COUNT / HEMATOCRIT / HEMOGLOBIN / LEUKOCYTE COUNT / LYMPHOCYTE / MEAN CORPUSCULAR HEMOGLOBIN / MEAN CORPUSCULAR HEMOGLOBIN CONCENTRATION / MEAN CORPUSCULAR VOLUME / MONOCYTE / NEUTROPHIL / NUCLEATED RED BLOOD CELLS / PLATELET COUNT: tissue Blood; for ALANINE AMINOTRANSFERASE / ALBUMIN / ALKALINE PHOSPHATASE / ASPARTATE AMINOTRANSFERASE / BLOOD UREA NITROGEN / CARBON DIOXIDE / CHLORIDE / CHOLESTEROL / CREATINE PHOSPHOKINASE / CREATININE / GLUCOSE / LACTATE DEHYDROGENASE / LIPASE / PHOSPHORUS / POTASSIUM / SODIUM / TOTAL BILIRUBIN / TOTAL PROTEIN / URIC ACID: tissue Plasma
[1] = 0.3 mg/kg, 120 h, dose level Low, time 5 day
[2] = 6 mg/kg, 72 h, dose level High, time 3 day
[3] = 6 mg/kg, 120 h, dose level High, time 5 day

## Clc1cccc(Cl)c1N=C1NCCN1 [CLONIDINE]
[1]
  ABSOLUTE BASOPHIL: 0 CELLS/uL
  ABSOLUTE EOSINOPHIL: 0 CELLS/uL
  ABSOLUTE LYMPHOCYTE: 12125.33 CELLS/uL
  ABSOLUTE MONOCYTE: 52.33 CELLS/uL
  ABSOLUTE SEGMENTED NEUTROPHIL: 1322.33 CELLS/uL
  BASOPHIL: 0%
  EOSINOPHIL: 0%
  ERYTHROCYTE COUNT: 5.47 x10E6/uL
  HEMATOCRIT: 34.07%
  HEMOGLOBIN: 13.73 G/DL
  LEUKOCYTE COUNT: 13.5 x10E3/uL
  LYMPHOCYTE: 89.33%
  MEAN CORPUSCULAR HEMOGLOBIN: 25.13 pg
  MEAN CORPUSCULAR HEMOGLOBIN CONCENTRATION: 40.3 G/DL
  MEAN CORPUSCULAR VOLUME: 62.3 fL
  MONOCYTE: 0.33%
  NEUTROPHIL: 10.33%
  NUCLEATED RED BLOOD CELLS: 0 /100WBC
  PLATELET COUNT: 1266.67 x10E3/uL
  ALANINE AMINOTRANSFERASE: 49.67 u/L
  ALBUMIN: 4.07 G/DL
  ALKALINE PHOSPHATASE: 360 u/L
  ASPARTATE AMINOTRANSFERASE: 94 u/L
  BLOOD UREA NITROGEN: 19 mg/dL
  CARBON DIOXIDE: 27 mmol/L
  CHLORIDE: 100.67 MEQ/L
  CHOLESTEROL: 70 mg/dL
  CREATINE PHOSPHOKINASE: 371.67 u/L
  CREATININE: 0.17 mg/dL
  GLUCOSE: 134.33 mg/dL
  LACTATE DEHYDROGENASE: 289.33 u/L
  LIPASE: 9 u/L
  PHOSPHORUS: 11.17 mg/dL
  POTASSIUM: 6.28 MEQ/L
  SODIUM: 140.53 MEQ/L
  TOTAL BILIRUBIN: 0.1 mg/dL
  TOTAL PROTEIN: 5.57 G/DL
  URIC ACID: 1.57 mg/dL
[2]
  ABSOLUTE BASOPHIL: 0 CELLS/uL
  ABSOLUTE EOSINOPHIL: 0 CELLS/uL
  ABSOLUTE LYMPHOCYTE: 11339 CELLS/uL
  ABSOLUTE MONOCYTE: 767 CELLS/uL
  ABSOLUTE SEGMENTED NEUTROPHIL: 6827.33 CELLS/uL
  BASOPHIL: 0%
  EOSINOPHIL: 0%
  ERYTHROCYTE COUNT: 6.6 x10E6/uL
  HEMATOCRIT: 40.63%
  HEMOGLOBIN: 16.17 G/DL
  LEUKOCYTE COUNT: 18.93 x10E3/uL
  LYMPHOCYTE: 61.33%
  MEAN CORPUSCULAR HEMOGLOBIN: 24.47 pg
  MEAN CORPUSCULAR HEMOGLOBIN CONCENTRATION: 39.8 G/DL
  MEAN CORPUSCULAR VOLUME: 61.5 fL
  MONOCYTE: 4%
  NEUTROPHIL: 34.67%
  NUCLEATED RED BLOOD CELLS: 0 /100WBC
  PLATELET COUNT: 1516.67 x10E3/uL
  ALANINE AMINOTRANSFERASE: 61 u/L
  ALBUMIN: 3.93 G/DL
  ALKALINE PHOSPHATASE: 306.67 u/L
  ASPARTATE AMINOTRANSFERASE: 172.33 u/L
  BLOOD UREA NITROGEN: 58 mg/dL
  CARBON DIOXIDE: 23.33 mmol/L
  CHLORIDE: 96 MEQ/L
  CHOLESTEROL: 67.33 mg/dL
  CREATINE PHOSPHOKINASE: 987.33 u/L
  CREATININE: 0.52 mg/dL
  GLUCOSE: 154.33 mg/dL
  LACTATE DEHYDROGENASE: 310.33 u/L
  LIPASE: 8 u/L
  PHOSPHORUS: 12.97 mg/dL
  POTASSIUM: 6.5 MEQ/L
  SODIUM: 140.77 MEQ/L
  TOTAL BILIRUBIN: 0.27 mg/dL
  TOTAL PROTEIN: 6.13 G/DL
  URIC ACID: 2.17 mg/dL
[3]
  ABSOLUTE BASOPHIL: 0 CELLS/uL
  ABSOLUTE EOSINOPHIL: 46 CELLS/uL
  ABSOLUTE LYMPHOCYTE: 9488.67 CELLS/uL
  ABSOLUTE MONOCYTE: 118.67 CELLS/uL
  ABSOLUTE SEGMENTED NEUTROPHIL: 2180 CELLS/uL
  BASOPHIL: 0%
  EOSINOPHIL: 0.33%
  ERYTHROCYTE COUNT: 6.57 x10E6/uL
  HEMATOCRIT: 38.83%
  HEMOGLOBIN: 15.23 G/DL
  LEUKOCYTE COUNT: 11.83 x10E3/uL
  LYMPHOCYTE: 81.33%
  MEAN CORPUSCULAR HEMOGLOBIN: 23.2 pg
  MEAN CORPUSCULAR HEMOGLOBIN CONCENTRATION: 39.23 G/DL
  MEAN CORPUSCULAR VOLUME: 59.1 fL
  MONOCYTE: 1%
  NEUTROPHIL: 17.33%
  NUCLEATED RED BLOOD CELLS: 0 /100WBC
  PLATELET COUNT: 916 x10E3/uL
  ALANINE AMINOTRANSFERASE: 33.67 u/L
  ALBUMIN: 4.07 G/DL
  ALKALINE PHOSPHATASE: 207 u/L
  ASPARTATE AMINOTRANSFERASE: 74 u/L
  BLOOD UREA NITROGEN: 20.67 mg/dL
  CARBON DIOXIDE: 30.67 mmol/L
  CHLORIDE: 104 MEQ/L
  CHOLESTEROL: 62.67 mg/dL
  CREATINE PHOSPHOKINASE: 177 u/L
  CREATININE: 0.25 mg/dL
  GLUCOSE: 163 mg/dL
  LACTATE DEHYDROGENASE: 128 u/L
  LIPASE: 9 u/L
  PHOSPHORUS: 8.13 mg/dL
  POTASSIUM: 5.61 MEQ/L
  SODIUM: 148.9 MEQ/L
  TOTAL BILIRUBIN: 0.2 mg/dL
  TOTAL PROTEIN: 5.9 G/DL
  URIC ACID: 0.7 mg/dL
